The record followed here is patent publication US20260115331A1, “PET IMAGING OF BACTERIAL INFECTION WITH A PET PROBE” (Mayo Foundation for Medical Education and Research, priority 2022, published 2026).

Read-outs that look alike come from different tables or passages of the source.

In this series the test system is Methicillin-resistant Staphylococcus aureus (MRSA). The format is in vivo, rats. Conditions: for SUV (Average ± SD), Contralateral Tibia / SUV (Average ± SD), Infected Tibia / SUV (Average ± SD), Muscle: Osteomyelitis Foreign Body model. As for the experimental part:
The PET probe [^68Ga]Ga-H3P2O8 was evaluated in methicillin-resistant S. aureus (MRSA) foreign-body osteomyelitis in the left tibia with a stainless steel Kirschner wire (K-wire) implant in male Wister rats, following a previously established protocol [Ref. 17]. Briefly, a 1 cm incision was made on the medial tibia and the bone exposed. A 1.5 mm hole was drilled, 0.01 mL of arachidonic acid (a sclerosing agent) and 0.05 mL of a suspension containing MRSA DRL-6169 at 10^8 cfu/mL was injected into the bone. A 5 mm threaded stainless-steel K-wire was inserted. The hole was closed with dental gypsum and the site closed. After implantation, the muscle and fascia were closed with 3-0 vicryl using simple interrupted sutures. The skin was closed with sterile wound clips and VetBond. The wound was sprayed with Aluspray and Chew Guard. After 7 days of implantation of wire, the animal was put on iron-deficient diet for 7 days and on the day of imaging, the animals were fasted for 4 hours prior to the injection of the PET probe. [^68Ga]Ga-H3P2O8 (32.81±6.28 MBq, n=18) were injected into the rat model via tail vein injection. The rat model was either a normal rat model or an osteomyelitis foreign body rat model or an inflamed foreign body rat model. PET/CT images were acquired at 15 minutes, 30 minutes, 60 minutes, and 120 minutes post-injection using Siemens Inveon MicroPET/CT Scanner (see FIGS. 17, 18, and Table 2).
The acquired PET images were visualized and analyzed for quantifying standardized uptake value (SUV) using image analysis software—MIM 7 software and PMOD. Following final imaging at 120 minutes post-injection, the animal was euthanized, and major organs and infected and inflamed tibia were extracted for gamma counting for ex-vivo biodistribution analysis (see FIG. 22). At the end of last imaging session, rats were euthanized by cardiectomy, and the operated tibia with K-wire or contralateral tibia were aseptically removed. Following removal, tibias were weighed, and Ga-68 radioactivity was counted in 2480 Wizard2 automatic gamma counter for ex-vivo biodistribution assessment. The tibias were then frozen to −80° C. The frozen tibia from each animal was crushed aseptically using a bone pulverizer chilled at −80° C. The crushed tibia without K wire was weighed and vortexed in 1 mL sterile saline. The K wire was also vortexed in 1.0 mL sterile saline separately. The vortexed tibia and K-wire saline suspension were sonicated for 5 minutes. After sonication, 1:10 serial dilutions were prepared in saline and 0.1 mL of each dilution was plated in Trypticase Soy Agar plates with 5% Sheep Blood (TSA II). After 24 hours of incubation at 37° C., the bacterial cultures in tibia suspension and K-wire suspension were quantified. In the 2-week-old osteomyelitis model used in the study, the infected tibia contained 7.00±0.19 log10 cfu/g tibia (n=10) and 5.41±0.40 log10 cfu/K-wire (n=10).

With `O=P(O)(O)[O][Ga]1[O]P(=O)(O)[O]1` [[^68Ga]Ga-H3P2O8, [^68Ga]Ga-hydrogen bisphosphate], for the setting “MRSA infected tibia, after 60 minutes post injection, PET image analysis (FIG. 26)”, the “mean SUV in infected tibia compared with [^68Ga]Ga-Citrate or [^18F]FDG” value is reported as “significantly higher mean SUV”. In addition, the “SUV (Average ± SD), Contralateral Tibia” value amounted to 0.76 ± 0.17 SUV (n = 5, 15 min post-injection); 0.59 ± 0.12 SUV (n = 5, 30 min post-injection); 0.60 ± 0.15 SUV (n = 5, 60 min post-injection); 0.29 ± 0.18 SUV (n = 5, 120 min post-injection). The “SUV (Average ± SD), Infected Tibia” value by setting is: (n = 5, 15 min post-injection) 1.82 ± 0.57 SUV; (n = 5, 30 min post-injection) 2.40 ± 0.49 SUV; (n = 5, 60 min post-injection) 2.87 ± 0.66 SUV; (n = 5, 120 min post-injection) 3.48 ± 0.25 SUV. Besides, the “SUV (Average ± SD), Muscle” value reads like this: (n = 5, 15 min post-injection) 0.59 ± 0.14 SUV; (n = 5, 30 min post-injection) 0.58 ± 0.20 SUV; (n = 5, 60 min post-injection) 0.67 ± 0.18 SUV; (n = 5, 120 min post-injection) 0.76 ± 0.30 SUV.
